The text below walks through data of PMC11602988 (The Journal of Biological Chemistry, 2024).

Numbering of substitutions follows the chain as printed. Entries after “also recorded” stand apart in the source; their conditions may differ.

In data set [1] the target is T1, OCT1 WT (Homo sapiens, UniProt O15245).
T1 sequence (O15245 1-554): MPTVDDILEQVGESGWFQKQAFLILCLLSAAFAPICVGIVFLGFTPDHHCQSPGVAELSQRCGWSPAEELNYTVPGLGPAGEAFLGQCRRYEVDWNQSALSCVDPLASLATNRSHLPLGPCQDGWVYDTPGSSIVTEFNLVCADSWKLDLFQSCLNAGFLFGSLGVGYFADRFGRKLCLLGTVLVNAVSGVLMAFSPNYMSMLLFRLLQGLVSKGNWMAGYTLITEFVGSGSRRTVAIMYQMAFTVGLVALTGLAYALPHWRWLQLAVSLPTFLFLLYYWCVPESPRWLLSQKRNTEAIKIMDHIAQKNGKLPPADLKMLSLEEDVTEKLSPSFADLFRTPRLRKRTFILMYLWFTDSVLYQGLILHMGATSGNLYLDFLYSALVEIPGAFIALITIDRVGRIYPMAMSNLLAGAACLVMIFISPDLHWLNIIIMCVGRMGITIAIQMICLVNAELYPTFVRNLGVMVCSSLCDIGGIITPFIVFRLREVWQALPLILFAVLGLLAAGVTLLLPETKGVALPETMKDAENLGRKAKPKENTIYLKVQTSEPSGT
The data set is described as follows: cell-based.

Data set [2] addresses T2, OCT1 Phe244Ala variant (Homo sapiens, UniProt O15245, F244A).
T2 sequence (O15245 1-554 F244A): T1 sequence (O15245 1-554) with F244A
The data set is described as follows: cell-based.

The target in data set [3] is T2, OCT1 Phe244Ala variant. Kind of data set: Inhibition of (R,S)-ethambutol uptake, HEK293 cells overexpressing OCT1 Phe244Ala. The following applies: for Inhibition of the Phe244Ala mutant compared to the WT transporter (screening): 20 μM inhibitor, 2 μM (R,S)-ethambutol, 5 min.
The target of data set [4] is T2, OCT1 Phe244Ala variant. Kind of data set: Stereoselective cell uptake of racemic substrates (chiral LC-MS/MS), OCT1 Phe244Ala variant. The following applies: 2.5 μM racemic substance, 2 min.
For data set [5], the target named is T1, OCT1 WT. Kind of data set: Uptake screening (transport ratio over empty vector), HEK293 cells overexpressing OCT1 WT.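 Also: intracellular substrate levels quantified by HPLC–tandem mass spectrometry after uptake in HBSS+ buffer at 37 °C, stable Flp-In HEK293 lines, fold change versus empty vector–transfected cells.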 Format: cell-based. Set-up: expressed in transfected cells.
Data set [6] concerns the target T2, OCT1 Phe244Ala variant. The data set is described as follows: Uptake screening (transport ratio over empty vector), HEK293 cells overexpressing OCT1 Phe244Ala variant.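 As to all read-outs here: stably transfected HEK293 cells, intracellular substrate quantified by HPLC-tandem mass spectrometry in cell lysates, uptake in HBSS+ buffer.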 Format: cell-based. On the set-up: expressed in transfected cells. The following applies: for relative_Phe244Ala_uptake_in%: Phe244Ala uptake relative to OCT1 WT.
The target of data set [7] is T2, OCT1 Phe244Ala variant. The data set is described as follows: Concentration-dependent uptake kinetics, HEK293 cells overexpressing OCT1 Phe244Ala.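 As to all read-outs here: cells exposed to rising substrate concentrations in buffer, intracellular drug measured by HPLC-tandem mass spectrometry, quantified against a standard curve, uptake referenced to empty vector-transfected HEK293 controls.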 To be noted: for Clint: OCT1 Phe244Ala, ratio of vmax over Km.
In data set [8] the target is T1, OCT1 WT. Kind of data set: Concentration-dependent uptake kinetics, HEK293 cells overexpressing OCT1 WT. The following applies: OCT1 WT; ratio of vmax over Km.
The target in data set [9] is T1, OCT1 WT. The data set is described as follows: Stereoselective cell uptake of racemic substrates (chiral LC-MS/MS), OCT1 WT. The following applies: 2.5 μM racemic substance, 2 min.
Substrate in data set [10]: CC(CCc1ccc(O)cc1)NCCc1ccc(O)c(O)c1
Kind of data set: cells, lysate or membranes. The following applies: other: OCT1 WT, HEK293, 2 min incubation, net uptake, mean ± SD of three experiments.

Substrate in data set [11]: Cc1ncc(C[n+]2csc(CCO)c2C)c(N)n1
Kind of data set: cells, lysate or membranes. To be noted: other: OCT1 WT, HEK293, 2 min incubation, net uptake, mean ± SD of three experiments.

Substrate in data set [12]: NC(N)=Nc1nc(CSCCC(N)=NS(N)(=O)=O)cs1
The data set is described as follows: cells, lysate or membranes. To be noted: other: OCT1 WT, HEK293, 2 min incubation, net uptake, mean ± SD of three experiments.

Substrate in data set [13]: CN1CCN(CC(=O)N2c3ccccc3C(=O)Nc3cccnc32)CC1
The data set is described as follows: cells, lysate or membranes. The following applies: other: OCT1 WT, HEK293, 2 min incubation, net uptake, mean ± SD of three experiments.

Substrate in data set [14]: CC(C)(C)NCC(O)COc1cccc2c1CCC(=O)N2
The data set is described as follows: cells, lysate or membranes. To be noted: other: OCT1 WT, HEK293, 2 min incubation, net uptake, mean ± SD of three experiments.

Substrate in data set [15]: COc1cc(CCN)cc(OC)c1OC
The data set is described as follows: cells, lysate or membranes. To be noted: other: OCT1 WT, HEK293, 2 min incubation, net uptake, mean ± SD of three experiments.

Substrate in data set [16]: CC(C)[N+](C)(CCOC(=O)C1c2ccccc2Oc2ccccc21)C(C)C
The data set is described as follows: cells, lysate or membranes. The following applies: other: OCT1 WT, HEK293, 2 min incubation, net uptake, mean ± SD of three experiments.

Substrate in data set [17]: CC(=O)OC(C)C[N+](C)(C)C
The data set is described as follows: cells, lysate or membranes. To be noted: other: OCT1 WT, HEK293, 2 min incubation, net uptake, mean ± SD of three experiments.

Substrate in data set [18]: CN(C)CCc1c[nH]c2ccc(C[C@H]3COC(=O)N3)cc12
The data set is described as follows: cells, lysate or membranes. To be noted: other: OCT1 WT, HEK293, 2 min incubation, net uptake, mean ± SD of three experiments.

Substrate in data set [19]: CCN1CCCC1CNC(=O)c1cc(S(N)(=O)=O)ccc1OC
Kind of data set: cells, lysate or membranes. The following applies: other: OCT1 WT, HEK293, 2 min incubation, net uptake, mean ± SD of three experiments.

Setting [20] is: uptake ratio of OCT1 WT-overexpressing HEK293 cells over empty vector.
[21] abbreviates: uptake ratio of OCT1 Phe244Ala-overexpressing HEK293 cells over empty vector.
The mark [22] stands for this setting: uptake ratio over empty vector, HEK293 cells overexpressing OCT1 WT.
[23] abbreviates: uptake ratio over empty vector, HEK293 cells overexpressing OCT1 Phe244Ala.

`Clc1cccc(Cl)c1N=C1NCCN1` [Clonidine]: the figures for the IC50 in data set [1] and in data set [2] were 1.62 µM and 34.3 µM, respectively. Moreover, the “Inhibition of the Phe244Ala mutant compared to the WT transporter (screening)” value in [3] is “strongly reduced inhibition”. Moreover, the “Fold difference of inhibitory potency between WT and Phe244Ala” value in [3] (IC50 comparison, (R,S)-ethambutol uptake) worked out at 21 fold.
For `CC(Cc1ccc(O)cc1)NCC(O)c1cc(O)cc(O)c1` (stereo not shown) [Fenoterol], the IC50 (commonly the concentration that gives 50% inhibition) in data set [1] was found to be 0.541 µM; in data set [2] it was 5.53 µM. Further, the “Stereoselectivity of Phe244Ala variant compared to WT” value (“Stereoselectivity … to WT” below) in [4] was “opposite stereoselectivities; also recorded: only one enantiomer of the racemic mixtures showed altered transport”.
Turning to `CN[C@@H]1CCc2[nH]c3ccc(C(N)=O)cc3c2C1` [Frovatriptan], the Mean_transport_ratio_WT in [5] (setting [20]) is given as 22.068. In [6], the relative_Phe244Ala_uptake_in% is recorded as 43.181%. In addition, the Mean_transport_ratio_Phe244Ala in [6] (setting [21]) was found to be 10.097. In addition, the “Stereoselectivity … to WT” value in data set [4] is “opposite stereoselectivities; also recorded: only one enantiomer of the racemic mixtures showed altered transport”.
`CN(C)CCc1ccc(O)cc1` [Hordenine]: in [5] (setting [20]), the Mean_transport_ratio_WT was determined as 2.424. Further, the relative_Phe244Ala_uptake_in% in data set [6] is recorded as 11.246%. The Mean_transport_ratio_Phe244Ala in [6] (setting [21]) amounted to 1.16. Besides, the IC50 stood at 3 µM in data set [1] and 53.2 µM in data set [2]. For the same molecule, in data set [3], the “Inhibition of the Phe244Ala mutant compared to the WT transporter (screening)” value is reported as “strongly reduced inhibition”.
With `COc1cc(CCN)cc(OC)c1OC` [Mescaline], the Mean_transport_ratio_WT in data set [5] (setting [20]) was found to be 5.297. The “Transport activity of Phe244Ala in % of WT activity” value in data set [6] (2.5 μM substrate, 2 min, Phe244Ala uptake relative to WT) is recorded as around 10%. The relative_Phe244Ala_uptake_in% in [6] was 16.381%. In [6] (setting [21]), the Mean_transport_ratio_Phe244Ala stood at 1.704. For the same molecule, in data set [7], the Clint was 0.91 ± 2.50 ml × g Protein^−1 × min^−1. Besides, in data set [7] (uptake kinetics, in words), the “Km, Phe244Ala compared to WT” value was “higher apparent affinity Km and transport capacity vmax for the WT transporter than the Phe244Ala variant”; the “Maximum transport capacity (vmax), Phe244Ala compared to WT” value is “higher apparent affinity Km and transport capacity vmax for the WT transporter than the Phe244Ala variant”. In addition, in data set [8], the Clint is 4.84 ± 2.55 ml × g Protein^−1 × min^−1. Also, in data set [3], the “Inhibition of the Phe244Ala mutant compared to the WT transporter (screening)” value is on record as “strongly reduced inhibition”.
With `CN1CCN(CC(=O)N2c3ccccc3C(=O)Nc3cccnc32)CC1` [Pirenzepine], in data set [6] (2.5 μM substrate, 2 min), the “Fold increased uptake rate by Phe244Ala compared to WT” value came out at 8.0 fold. The IC50 in data set [1] was determined as 104 µM; in data set [2], 23.3 µM. Also, the Clint is recorded as 2.74 ± 2.15 ml × g Protein^−1 × min^−1 in [7] and 0.43 ± 0.85 ml × g Protein^−1 × min^−1 in [8]. In addition, in data set [7] (uptake kinetics, in words), the “Km, Phe244Ala compared to WT” value was “lower Km values”. Moreover, the “Inhibition of the Phe244Ala mutant compared to the WT transporter (screening)” value in data set [3] is “more potent inhibition”.
Consider `CCOc1ccccc1OCCN[C@H](C)Cc1ccc(OC)c(S(N)(=O)=O)c1` [Tamsulosin], for which the Mean_transport_ratio_WT in data set [5] (setting [22]) is given as 3.001. Also, in data set [6], the relative_Phe244Ala_uptake_in% turned out to be 40.118%. The Mean_transport_ratio_Phe244Ala in data set [6] (setting [23]) is 1.803. Besides, in data set [9], the “Stereoselectivity of uptake via WT OCT1” value is listed as “stereoselective uptake”. The “Stereoselectivity of transport by the Phe244Ala variant” value in data set [4] is “lacked any stereoselective transport”.
As for `COc1cc(Cc2cnc(N)nc2N)cc(OC)c1OC` [Trimethoprim], the Mean_transport_ratio_WT in data set [5] (setting [22]) is given as 3.204. The relative_Phe244Ala_uptake_in% in [6] was determined as 23.542%. The Mean_transport_ratio_Phe244Ala in [6] (setting [23]) was determined as 1.519. Moreover, the “Inhibition of the Phe244Ala mutant compared to the WT transporter (screening)” value in data set [3] is “strongly reduced inhibition”.
Regarding `O=C(NCCNCC(O)COc1ccc(O)cc1)N1CCOCC1` (stereo not shown) [Xamoterol], in [5] (setting [22]), the Mean_transport_ratio_WT was 34.864. Also, the relative_Phe244Ala_uptake_in% in data set [6] is reported as 54.211%. Moreover, the Mean_transport_ratio_Phe244Ala in data set [6] (setting [23]) was found to be 19.358. Also, the “Stereoselectivity of uptake via WT OCT1” value in [9] is recorded as “stereoselective uptake”. Further, in data set [4], the “Stereoselectivity … to WT” value was “only one enantiomer of the racemic mixtures showed altered transport” and the “Stereoselectivity of transport by the Phe244Ala variant” value was “lacked any stereoselective transport”.

B1: OCT1 WT (Homo sapiens) (protein)
chain: T1 sequence (O15245 1-554)
For B1, the Km (in general, the substrate concentration at which the rate is half of its maximum) turned out to be 40.1 ± 57.7 µM in [10]; 1161 ± 1029 µM in data set [11]; 64.7 ± 50.2 µM in data set [12]; 69.3 ± 103 µM in data set [13]; 449 ± 438 µM in data set [14]; 38.2 ± 14.3 µM in data set [15]. In addition, the Km in data set [16] came to 1.26 ± 1.12 µM; in data set [17], 413 ± 314 µM; in data set [18] it was 98.5 ± 87.8 µM; in data set [19], 89.2 ± 85.2 µM. The Vmax (as a rule, the top rate of the reaction or transport when substrate is in excess) in data set [10] amounted to 0.000122 µmol/min/mg; in [11], 0.00872 µmol/min/mg; in [12], 0.00296 µmol/min/mg; in [13] it was 3e-05 µmol/min/mg; in data set [14], 0.000453 µmol/min/mg; in data set [15] it was 0.000185 µmol/min/mg. Moreover, the figures for the Vmax in [16], in data set [17] and in [18] were 0.000271 µmol/min/mg, 0.00584 µmol/min/mg and 0.00213 µmol/min/mg, respectively. Also, the Vmax/Km in data set [10] amounted to 3.03 µL/min/mg; in data set [11], 7.51 µL/min/mg; in [12], 45.8 µL/min/mg; in data set [13], 0.43 µL/min/mg; in data set [14] it was 1.01 µL/min/mg; in data set [15], 4.84 µL/min/mg. Further, the Vmax/Km in data set [16] amounted to 224 µL/min/mg; in data set [17], 14.1 µL/min/mg; in data set [18] it was 21.6 µL/min/mg.
